The values that follow come from US20200069691A1, “HETEROCYCLIC COMPOUNDS AS HIV PROTEASE INHIBITORS” (Merck Sharp & Dohme Corp., priority 2016, published 2020).

SMILES strings stand for the structures.

The target of the assay is T1, wild-type HIV-1 protease (Human immunodeficiency virus type 1 group M subtype B, UniProt P04585).
T1 construct: Escherichia coli expressed wild-type HIV-1 protease protein
Briefly: Assay for Inhibition of Microbial Expressed HIV Protease (peptide substrate cleavage, LC-MS/MS readout). Type of assay: biochemical. The conditions noted are these: E. coli expressed wild-type HIV-1 protease, mean of at least two independent experiments, read-out: HIV Pr Enzyme HIV1 PR IC50. Summed up: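 E. coli-expressed wild-type HIV-1 protease ([…]) was preincubated with inhibitor 30 min at room temperature in pH 5.5 acetate buffer (100 mM NaCl, 0.1% BSA). Then 400 μM octapeptide substrate was added and reacted 1 h at 30 °C; inhibition came from LC-MS/MS product peak areas, mean of ≥2 experiments.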

On to `CN(C)C(=O)N1CCN(C(=O)c2cccc(CN3C(=N)NC(c4ccccc4)(c4ccccc4)C3=O)c2)CC1` [Compound 357, 4-({3-[(2-imino-5-oxo-4,4-diphenylimidazolidin-1-yl)methyl]phenyl}carbonyl)-N,N-dimethylpiperazine-1-carboxamide], for which the IC50 (commonly the concentration at which inhibition is half-maximal) stood at 0.0912 µM.

Turning to `CN1CCN(C(=O)c2cccc(CN3C(=N)NC(c4ccccc4)(c4ccccc4)C3=O)c2)CC1=O` [Compound 358, 4-({3-[(2-imino-5-oxo-4,4-diphenylimidazolidin-1-yl)methyl]phenyl}carbonyl)-1-methylpiperazin-2-one], the IC50 turned out to be 0.0936 µM.

Turning to `N=C1NC(c2ccccc2)(c2ccccc2)C(=O)N1Cc1cccc(C(=O)N2CCN(c3ccc(F)cc3)CC2)c1` [Compound 359, 3-(3-{[4-(4-fluorophenyl)piperazin-1-yl]carbonyl}benzyl)-2-imino-5,5-diphenylimidazolidin-4-one], the IC50 stood at 0.0939 µM.

As for `CC(C)CCC1(c2cccc(-c3cccnc3)c2)NC(=N)N(Cc2cccc(C(=O)N3Cc4cccnc4C3)c2)C1=O` (stereo not shown) [Compound 360, 3-[3-(5,7-dihydro-6H-pyrrolo[3,4-b]pyridin-6-ylcarbonyl)benzyl]-2-imino-5-(3-methylbutyl)-5-(3-pyridin-3-ylphenyl)imidazolidin-4-one], the IC50 turned out to be 0.0951 µM.

On to `CC(C)(C)NC(=O)c1nnc2n1CCN(C(=O)c1cccc(CN3C(=N)NC(c4ccccc4)(c4ccccc4)C3=O)c1)C2` [Compound 361, N-tert-butyl-7-({3-[(2-imino-5-oxo-4,4-diphenylimidazolidin-1-yl)methyl]phenyl}carbonyl)-5,6,7,8-tetrahydro[1,2,4]triazolo[4,3-a]pyrazine-3-carboxamide], for which the IC50 amounted to 0.0961 µM.

For the molecule `N=C1NC(c2ccccc2)(c2ccccc2)C(=O)N1Cc1ccc(Cl)c(C(=O)N2Cc3nccnc3C2)c1` [Compound 362, 3-[4-chloro-3-(5,7-dihydro-6H-pyrrolo[3,4-b]pyrazin-6-ylcarbonyl)benzyl]-2-imino-5,5-diphenylimidazolidin-4-one], the IC50 was found to be 0.00134 µM.

`N#Cc1ncc2c(n1)CN(C(=O)c1cc(CN3C(=N)NC(c4ccc(F)cc4)(c4ccc(F)cc4)C3=O)ccc1Cl)C2` [Compound 363, 6-[(5-{[4,4-bis(4-fluorophenyl)-2-imino-5-oxoimidazolidin-1-yl]methyl}-2-chlorophenyl)carbonyl]-6,7-dihydro-5H-pyrrolo[3,4-d]pyrimidine-2-carbonitrile]: the IC50 came out at 0.00166 µM.

Regarding `CC(C)CC1(c2ccccc2)NC(=N)N(Cc2ccc(Cl)c(C(=O)N3Cc4cnc(C#N)nc4C3)c2)C1=O` (stereo not shown) [Compound 364, 6-[(2-chloro-5-{[2-imino-4-(2-methylpropyl)-5-oxo-4-phenylimidazolidin-1-yl]methyl}phenyl)carbonyl]-6,7-dihydro-5H-pyrrolo[3,4-d]pyrimidine-2-carbonitrile], the IC50 came to 0.00417 µM.

As for `CC(C)CC1(c2ccccc2)NC(=N)N(Cc2ccc(Cl)c(C(=O)N3Cc4nccnc4C3)c2)C1=O` (stereo not shown) [Compound 365, 3-[4-chloro-3-(5,7-dihydro-6H-pyrrolo[3,4-b]pyrazin-6-ylcarbonyl)benzyl]-2-imino-5-(2-methylpropyl)-5-phenylimidazolidin-4-one], the IC50 turned out to be 0.00487 µM.

For `CC(C)CC1(c2ccccc2)NC(=N)N(Cc2ccc(Cl)c(C(=O)N3Cc4cccnc4C3)c2)C1=O` (stereo not shown) [Compound 366, 3-[4-chloro-3-(5,7-dihydro-6H-pyrrolo[3,4-b]pyridin-6-ylcarbonyl)benzyl]-2-imino-5-(2-methylpropyl)-5-phenylimidazolidin-4-one], the IC50 amounted to 0.00508 µM.

As to `N#Cc1ncc2c(n1)CN(C(=O)c1cc(CN3C(=N)NC(c4ccccc4)(c4ccccc4)C3=O)ccc1Cl)C2` [Compound 367, 6-({2-chloro-5-[(2-imino-5-oxo-4,4-diphenylimidazolidin-1-yl)methyl]phenyl}carbonyl)-6,7-dihydro-5H-pyrrolo[3,4-d]pyrimidine-2-carbonitrile], the IC50 stood at 0.00513 µM.

As for `N=C1NC(c2ccccc2)(c2ccccc2)C(=O)N1Cc1ccc(Cl)c(C(=O)N2Cc3cccnc3C2)c1` [Compound 368, 3-[4-chloro-3-(5,7-dihydro-6H-pyrrolo[3,4-b]pyridin-6-ylcarbonyl)benzyl]-2-imino-5,5-diphenylimidazolidin-4-one], the IC50 was 0.00542 µM.

For `COc1ccc(CN2C(=N)NC(c3ccc(Cl)cc3)(c3ccc(Cl)cc3)C2=O)cc1C(=O)N1Cc2nccnc2C1` [Compound 369, 5,5-bis(4-chlorophenyl)-3-[3-(5,7-dihydro-6H-pyrrolo[3,4-b]pyrazin-6-ylcarbonyl)-4-methoxybenzyl]-2-iminoimidazolidin-4-one], the IC50 came out at 0.0314 µM.

In the case of `COC(=O)Nc1ncc2c(n1)CN(C(=O)c1cc(CN3C(=N)NC(c4ccc(F)cc4)(c4ccc(F)cc4)C3=O)ccc1F)C2` [Compound 370, methyl {6-[(5-{[4,4-bis(4-fluorophenyl)-2-imino-5-oxoimidazolidin-1-yl]methyl}-2-fluorophenyl)carbonyl]-6,7-dihydro-5H-pyrrolo[3,4-d]pyrimidin-2-yl}carbamate], the IC50 turned out to be 0.00581 µM.

Consider `COc1ccc(CN2C(=N)NC(c3ccccc3)(c3ccccc3)C2=O)cc1C(=O)N1Cc2ccccc2C1` [Compound 371, 3-[3-(1,3-dihydro-2H-isoindol-2-ylcarbonyl)-4-methoxybenzyl]-2-imino-5,5-diphenylimidazolidin-4-one], for which the IC50 worked out at 0.0295 µM.

Take `COc1ccc(CN2C(=N)NC(c3ccccc3)(c3ccccc3)C2=O)cc1C(=O)N1Cc2cccc(F)c2C1` [Compound 372, 3-{3-[(4-fluoro-1,3-dihydro-2H-isoindol-2-yl)carbonyl]-4-methoxybenzyl}-2-imino-5,5-diphenylimidazolidin-4-one]: the IC50 amounted to 0.00691 µM.

In the case of `CC(C)CC1(c2ccccc2)NC(=N)N(Cc2ccc(Cl)c(C(=O)N3Cc4cncnc4C3)c2)C1=O` (stereo not shown) [Compound 373, 3-[4-chloro-3-(5,7-dihydro-6H-pyrrolo[3,4-d]pyrimidin-6-ylcarbonyl)benzyl]-2-imino-5-(2-methylpropyl)-5-phenylimidazolidin-4-one], the IC50 was 0.00693 µM.

For `N=C1NC(c2ccccc2)(c2ccccc2)C(=O)N1Cc1ccc(Cl)c(C(=O)N2Cc3cncnc3C2)c1` [Compound 374, 3-[4-chloro-3-(5,7-dihydro-6H-pyrrolo[3,4-d]pyrimidin-6-ylcarbonyl)benzyl]-2-imino-5,5-diphenylimidazolidin-4-one], the IC50 is 0.00702 µM.

As for `N=C1NC(c2ccc(F)cc2)(c2ccc(F)cc2)C(=O)N1Cc1ccc(Cl)c(C(=O)N2Cc3ccccc3C2)c1` [Compound 375, 3-[4-chloro-3-(1,3-dihydro-2H-isoindol-2-ylcarbonyl)benzyl]-5,5-bis(4-fluorophenyl)-2-iminoimidazolidin-4-one], the IC50 stood at 0.00756 µM.

As to `N=C1NC(c2ccc(F)cc2)(c2ccc(F)cc2)C(=O)N1Cc1ccc(Cl)c(C(=O)N2Cc3cncnc3C2)c1` [Compound 376, 3-[4-chloro-3-(5,7-dihydro-6H-pyrrolo[3,4-d]pyrimidin-6-ylcarbonyl)benzyl]-5,5-bis(4-fluorophenyl)-2-iminoimidazolidin-4-one], the IC50 was 0.0096 µM.

With `N=C1NC(c2ccc(F)cc2)(c2ccc(F)cc2)C(=O)N1Cc1ccc(Cl)c(C(=O)N2Cc3ccc(F)cc3C2)c1` [Compound 377, 3-{4-chloro-3-[(5-fluoro-1,3-dihydro-2H-isoindol-2-yl)carbonyl]benzyl}-5,5-bis(4-fluorophenyl)-2-iminoimidazolidin-4-one], the IC50 was determined as 0.01 µM.

As to `CN1CCN(C(=O)c2cc(CN3C(=N)NC(c4ccccc4)(c4ccccc4)C3=O)ccc2Cl)CC1=O` [Compound 378, 4-({2-chloro-5-[(2-imino-5-oxo-4,4-diphenylimidazolidin-1-yl)methyl]phenyl}carbonyl)-1-methylpiperazin-2-one], the IC50 is 0.0106 µM.

Turning to `N=C1NC(c2ccccc2)(c2ccccc2)C(=O)N1Cc1ccc(F)c(C(=O)N2Cc3nccnc3C2)c1` [Compound 379, 3-[3-(5,7-dihydro-6H-pyrrolo[3,4-b]pyrazin-6-ylcarbonyl)-4-fluorobenzyl]-2-imino-5,5-diphenylimidazolidin-4-one], the IC50 was 0.0107 µM.

For the molecule `N=C1NC(c2ccccc2)(c2ccccc2)C(=O)N1Cc1ccc(Cl)c(C(=O)N2CCNC(=O)C2)c1` [Compound 380, 4-({2-chloro-5-[(2-imino-5-oxo-4,4-diphenylimidazolidin-1-yl)methyl]phenyl}carbonyl) piperazin-2-one], the IC50 is 0.0112 µM.

For the molecule `COC(=O)N1CCN(C(=O)c2cc(CN3C(=N)NC(c4ccc(F)cc4)(c4ccc(F)cc4)C3=O)ccc2Cl)CC1` [Compound 381, methyl 4-[(5-{[4,4-bis(4-fluorophenyl)-2-imino-5-oxoimidazolidin-1-yl]methyl}-2-chlorophenyl)carbonyl] piperazine-1-carboxylate], the IC50 amounted to 0.0124 µM.

Regarding `N=C1NC(c2ccc(F)cc2)(c2ccc(F)cc2)C(=O)N1Cc1ccc(F)c(C(=O)N2Cc3nccnc3C2)c1` [Compound 382, 3-[3-(5,7-dihydro-6H-pyrrolo[3,4-b]pyrazin-6-ylcarbonyl)-4-fluorobenzyl]-5,5-bis(4-fluorophenyl)-2-iminoimidazolidin-4-one], the half-maximal inhibitory concentration (IC50) came to 0.0131 µM.

In the case of `N=C1NC(c2ccccc2)(c2ccccc2)C(=O)N1Cc1ccc(Cl)c(C(=O)N2CCC(n3c(=O)[nH]c4ccccc43)CC2)c1` [Compound 383, 1-[1-({2-chloro-5-[(2-imino-5-oxo-4,4-diphenylimidazolidin-1-yl)methyl]phenyl}carbonyl)piperidin-4-yl]-1,3-dihydro-2H-benzimidazol-2-one], the IC50 amounted to 0.0147 µM.

Consider `N#Cc1ncc2c(n1)CN(C(=O)c1cc(CN3C(=N)NC(c4ccccc4)(c4ccccc4)C3=O)ccc1F)C2` [Compound 384, 6-({2-fluoro-5-[(2-imino-5-oxo-4,4-diphenylimidazolidin-1-yl)methyl]phenyl}carbonyl)-6,7-dihydro-5H-pyrrolo[3,4-d]pyrimidine-2-carbonitrile], for which the IC50 is 0.0216 µM.
